SMILES strings stand for the structures.

This test has as its system A/WSN/33-nanoLuc or Ca/09. It counts as cell-based, influenza A virus.

Turning to `O=c1nc(NO)ccn1[C@@H]1O[C@H](CO)[C@@H](O)[C@H]1O` [NHC, N^4-hydroxycytidine], the “drug concentration resulting in virus extinction” value is at least 4 µM and the “repeat exposure of NHC-experienced virus populations” value is “again rapidly sterilizing”.

These data come from article PMC6848974 (Science translational medicine, 2019).
